According to the NIST ThermoML archive (doi:10.1016/j.fluid.2010.01.002):

Columns and labels:
[1] = mn = molality of the nth substance listed, in mol/kg; settings: 101 kPa, Liquid, Vibrating tube method
[2] = 101.33 kPa, Liquid; for viscosity: Capillary tube (Ostwald / Ubbelohde) method; for mass density: Vibrating tube method
[3] = refractive index (Na D-line) (dimensionless); settings: 101.33 kPa, Liquid, Standard Abbe refractometry

COS(=O)(=O)[O-].Cn1cc[n+](C)c1 [1,3-dimethylimidazolium methylsulfate] + C[S+](C)[O-]
mass density [kg/m3], [1]
Settings | 298.15 K | 308.15 K | 318.15 K | 328.15 K
m1 = 0.0129 | 1095.83 | 1085.98 | 1075.96 | 1065.92
m1 = 0.0148 | 1095.95 | 1086.09 | 1076.07 | 1066.03
m1 = 0.0289 | 1096.8 | 1086.89 | 1076.88 | 1066.84
m1 = 0.0374 | 1097.18 | 1087.35 | 1077.34 | 1067.32
m1 = 0.0433 | 1097.5 | 1087.65 | 1077.66 | 1067.64
m1 = 0.0517 | 1097.95 | 1088.1 | 1078.12 | 1068.11
m1 = 0.0632 | 1098.58 | 1088.71 | 1078.72 | 1068.74
m1 = 0.0897 | 1100 | 1090.12 | 1080.15 | 1070.19
m1 = 0.1221 | 1101.67 | 1091.81 | 1081.86 | 1071.93
m1 = 0.1501 | 1103.05 | 1093.21 | 1083.28 | 1073.4
m1 = 0.1878 | 1104.92 | 1095.1 | 1085.22 | 1075.36
m1 = 0.2351 | 1107.24 | 1097.42 | 1087.6 | 1077.78
m1 = 0.2852 | 1109.64 | 1099.85 | 1090.06 | 1080.29
m1 = 0.3822 | 1114 | 1104.38 | 1094.63 | 1084.97
m1 = 0.5216 | 1120.2 | 1110.59 | 1100.91 | 1091.34
m1 = 0.8153 | 1132.05 | 1122.58 | 1113.1 | 1103.75

CC#N [acetonitrile]
Settings | mass density, [2] [kg/m3] | refractive index, [3] | viscosity, [2] [mPa·s]
298.15 K | 776.59 | 1.3411 | 0.3431
308.15 K | 765.76 | 1.3365 | 0.3171
318.15 K | 754.67 | 1.3327 | 0.2918
328.15 K | 743.6 | 1.3259 | 0.268

C[S+](C)[O-] [dimethyl sulfoxide]
Settings | mass density, [2] [kg/m3] | refractive index, [3] | viscosity, [2] [mPa·s]
298.15 K | 1095.27 | 1.4737 | 1.979
308.15 K | 1085.18 | 1.4701 | 1.622
318.15 K | 1075.24 | 1.4668 | 1.381
328.15 K | 1065.16 | 1.462 | 1.207

CN(C)C=O [dimethylformamide]
Settings | mass density, [2] [kg/m3] | refractive index, [3] | viscosity, [2] [mPa·s]
298.15 K | 943.8 | 1.4267 | 0.8605
308.15 K | 934.45 | 1.4225 | 0.7712
318.15 K | 924.75 | 1.418 | 0.6975
328.15 K | 914.9 | 1.4144 | 0.6374

CO [methanol]
Settings | mass density, 298.15 K [kg/m3] | mass density, 308.15 K [kg/m3] | mass density, 318.15 K [kg/m3] | mass density, 328.15 K [kg/m3] | refractive index, 298.15 K | refractive index, 308.15 K | refractive index, 318.15 K | refractive index, 328.15 K | viscosity, 318.15 K [mPa·s] | viscosity, 328.15 K [mPa·s]
[2] | 786.53 | 777.09 | 767.48 | 757.75 | – | – | – | – | 0.5962 | 0.4792
[3] | – | – | – | – | 1.3272 | 1.3232 | 1.3185 | 1.3158 | – | –

O [water]
Settings | mass density, 328.15 K [kg/m3] | refractive index, 298.15 K | refractive index, 308.15 K | refractive index, 318.15 K | refractive index, 328.15 K | viscosity, 298.15 K [mPa·s] | viscosity, 308.15 K [mPa·s] | viscosity, 318.15 K [mPa·s] | viscosity, 328.15 K [mPa·s]
[2] | 985.62 | – | – | – | – | 0.8949 | 0.7207 | 0.5962 | 0.5042
[3] | – | 1.3325 | 1.3313 | 1.3298 | 1.3282 | – | – | – | –
